One data set has as its system Caco-2 (Colon). Put plainly: IC50 for killing cancer cells. Type of data set: cell-based. As to conditions: Homo sapiens. An excerpt:
(§1) Therapeutic universality of selenocoxib-1-GSH for killing cancer cells is examined by treating pancreatic (MiaPaca-2), breast (MDA-MB-231), prostate (PC-3) or sarcoma (HT-1080) and colon (Caco2) cell. lines with the drug and establishing the IC50 for each cell line, Table III. Selenocoxib-1-GSH kills the various cancer cell lines at 2-3-fold lower concentrations than normal fibroblast cells.

The test system of a further data set is MiaPaca-2 (Pancreas). Put plainly: IC50 for killing cancer cells. The following applies: Homo sapiens, MIA PaCa-2. The format is cell-based.
Excerpt: as §1

In the next data set the test system is PC-3 (Prostate). Description: IC50 for killing cancer cells. Type of data set: cell-based. As to conditions: Homo sapiens.
Excerpt: as §1

For the next data set, the system named is HT-1080 (Fibro sarcoma). Put plainly: IC50 for killing cancer cells. Type of data set: cell-based. The following applies: Homo sapiens.
Excerpt: as §1

In another data set the test system is MDA-MB-231 (Breast). Description: IC50 for killing cancer cells. The format is cell-based. The following applies: Homo sapiens.
Excerpt: as §1

The test system of data set [1] is 1205 Lu metastatic melanoma cells. Put plainly: cells. As to conditions: Homo sapiens. How it is done:
(§2) Cell viability, proliferation, apoptosis and cell cycle analysis: Viability and IC50 (μmol/L) of normal human melanocytes, fibroblast and melanoma cells following treatment with inhibitors are measured using the MTS assay (Promega, Madison, Wis.) described in Sharma A, et al., Clin Cancer Res 2009; 15:1674-85; and Madhunapantula S V, et al., Mol Cancer Ther 2008; 7:1297-308. […] IC50 values for each inhibitor in μmol/L for respective cell lines are measured from three independent experiments using GraphPad Prism version 4.01 (GraphPad Software, La Jolla, Calif.).
(§3) The number of viable cells is measured using MTS and percentage decrease in viability calculated. IC50 values for each inhibitor in μmol/L for respective cell lines are measured from three independent experiments using GraphPad Prism version 4.01 (GraphPad Software, La Jolla, Calif.).

For data set [2], the system named is UACC 903 metastatic melanoma cells. Description: cells. The following applies: Homo sapiens. On the procedure:
as §2, §3

Data set [3] relates to FF2441 human fibroblast cells. Put plainly: Cell viability, MTS assay. Type of data set: cell-based. On the procedure:
as §2, §3

In data set [4] the test system is WM115 vertical growth phase melanoma cells. Description: Cell viability, MTS assay. Type of data set: cell-based. As to conditions: Homo sapiens, WM-115. On the procedure:
as §2, §3

Data set [5] concerns FOM103 normal human melanocytes. Put plainly: Cell viability, MTS assay. Type of data set: cell-based. As to conditions: Melanocyte. On the procedure:
as §2, §3

Data set [6] deals with WM35 radial growth phase melanoma cells. Put plainly: Cell viability, MTS assay. The format is cell-based. As to conditions: Homo sapiens. How it is done: as §2, §3
In the next data set the test system is 1205 Lu melanoma cells. Description: Western blot analysis. Type of data set: cell-based, human. As to conditions: 2.5-50 μmol/L for 48 h. An excerpt:
(§4) Cell lysates are harvested and processed as described in Sharma A et al., Cancer Res 2006, 66:8200-9. […] Protein lysates are collected for Western blotting. Blots are probed with total and phospho-Akt (Ser473), phospho-PRAS40 (Thr246), phospho-Erk1/2 (Thr202/Tyr204), total and Phospho-Mek1/2 (Ser217) and cleaved PARP from Cell Signaling Technology (Danvers, Mass.). Total PRAS40 from Invitrogen (Carlsbad, Calif.). Total Erk, cyclin D1, p27, Alpha-enolase and secondary antibodies conjugated with horseradish peroxidase from Santa Cruz Biotechnology (Santa Cruz Biotechnology, Santa Cruz, Calif.). COX-1 and COX-2 antibodies were obtained from Cayman Chemical Company, Ann Arbor, Mich. Immunoblots are developed using the enhanced chemiluminescence detection system (Amersham Pharmacia Biotech, Piscataway, N.J.).

The next data set has as its system UACC 903 melanoma cells. Description: Western blot analysis. Type of data set: cell-based, human. The following applies: UACC 903, 2.5-50 μmol/L for 48 h.
Excerpt: as §4

For data set [7] the following is noted: for Mortality at Day 7: 3 mice/group. An excerpt: Number of mice surviving and changes in body weight after 7 days of drug treatment is scored (Table I).
Setting [8] is: 0.032 μmoles (2.5 PPM) intraperitoneally daily for seven days.

Where two headings read alike, the source gives them in different places.

`Cc1ccc(-c2cc(C(F)(F)F)nn2-c2ccc(S(N)(=O)=O)cc2)cc1` [Celecoxib, reference compound]: the IC50 (in the data set with Caco-2 (Colon); with MiaPaca-2 (Pancreas); in the data set on PC-3 (Prostate); in the data set on HT-1080 (Fibro sarcoma); in the data set on MDA-MB-231 (Breast); in data set [1] (24 h)) was over 100 µM throughout. Moreover, the 50% inhibitory concentration (IC50) in data set [1] (48 h) was 83.6 ± 3.3 µM; in data set [1] (72 h), 66.1 ± 3.2 µM; in [2] (UACC-903, 24 h) it was over 100 µM; in [2] (UACC-903, 48 h), over 100 µM; in [2] (UACC-903, 72 h), 76.6 ± 4.4 µM; in data set [3] (FF2441, 24 h), over 100 µM. In addition, the IC50 in [3] (FF2441, 48 h) was over 100 µM; in data set [3] (FF2441, 72 h) it was 65.3 ± 3.3 µM; in data set [4] (WM115, 24 h) it was 54.4 ± 3.6 µM; in data set [4] (WM115, 48 h), 45.3 ± 2.7 µM; in [4] (WM115, 72 h) it was 41.8 ± 2.9 µM; in data set [5] (FOM103, 24 h) it was over 100 µM. The IC50 in [5] (FOM103, 48 h) was over 100 µM; in [5] (FOM103, 72 h) it was 68 ± 1.2 µM; in [6] (WM35, 24 h) it was 51.3 ± 2.3 µM; in data set [6] (WM35, 48 h), 42.3 ± 1.8 µM; in data set [6] (WM35, 72 h), 37.9 ± 3.3 µM.

`N#CC(=C(/N)Sc1ccccc1N)/C(C#N)=C(\N)Sc1ccccc1N` [U0126, reference compound]: in the data set with 1205 Lu melanoma cells, the COX-1 expression result is “without affecting COX-1”, the COX-2 expression entry was “reduces the expression of COX-2” and the “Levels of pErk1/2” value is “similarly decrease”. In the data set with UACC 903 melanoma cells, the COX-1 expression result was “without affecting COX-1”, the COX-2 expression result was “reduces the expression of COX-2” and the “Levels of pErk1/2” value is given as “similarly decrease”.

For Selenocoxib-1, the “% of weight loss” value was 14.07% in data set [7] (setting [8]) and 14% in data set [7] (0.032 μmoles (2.5 PPM) intraperitoneally daily for seven days, listed as selenocoxib-1). Moreover, the “Mortality at Day 7” value is 0/3 in data set [7] (setting [8]) and 3/3 in data set [7] (0.064 μmoles (5.0 PPM) intraperitoneally daily for seven days). This molecule showed an animal mortality in data set [7] (concentrations of 0.032-0.064, after seven days of treatment) of 100%.

Source of the values: patent publication US9918966B2, “Anti-cancer compositions and methods” (The Penn State Research Foundation, priority 2013, dated 2018).
